According to ChEMBL document CHEMBL5154944, “Discovery of Aryloxyphenyl-Heptapeptide Hybrids as Potent and Selective Matrix Metalloproteinase-2 Inhibitors for the Treatment of Idiopathic Pulmonary Fibrosis” (J Med Chem, 2022):
pIC50: −log10 of the molar value. Non-standard residues stand in square brackets, D forms with d. Residues, ends and D or L forms follow the SMILES beside them. *: point of attachment. Benzoyl(4-OPh(4-CONH2)) = NC(=O)c1ccc(Oc2ccc(C(=O)*)cc2)cc1; Benzenesulfonyl(4-OPh) = O=S(=O)(c1ccc(Oc2ccccc2)cc1)*; NMeI = CC[C@H](C)[C@H](NC)C(=O)O; NMeE = CN[C@@H](CCC(=O)O)C(=O)O; β3hP = O=C(O)C[C@@H]1CCCN1; Dab = NCC[C@H](N)C(=O)O; Ava = NCCCCC(=O)O; GABA = NCCCC(=O)O

Key:
Homo sapiens [1] = species: Homo sapiens; assay: Selectivity ratio of IC50 for recombinant human MMP12 to IC50 for recombinant human MMP2
[2] = Metabolic stability in rat hepatocytes assessed as parent compound remaining incubated for 1 hr by LC-MS/MS; type: ADME, cell-based, Hepatocyte; settings: read-out: Stability
Interstitial collagenase = molecular target: T1, Interstitial collagenase (Homo sapiens, UniProt P03956); assay: Inhibition of recombinant human MMP1 using MOCAc-Lys-Pro-Leu-Gly-Leu-A2pr(Dnp)-Ala-Arg-NH2 as substrate preincubated for 15 mins followed by substrate addition by fluroscence based assay
T1 sequence (P03956 whole entry): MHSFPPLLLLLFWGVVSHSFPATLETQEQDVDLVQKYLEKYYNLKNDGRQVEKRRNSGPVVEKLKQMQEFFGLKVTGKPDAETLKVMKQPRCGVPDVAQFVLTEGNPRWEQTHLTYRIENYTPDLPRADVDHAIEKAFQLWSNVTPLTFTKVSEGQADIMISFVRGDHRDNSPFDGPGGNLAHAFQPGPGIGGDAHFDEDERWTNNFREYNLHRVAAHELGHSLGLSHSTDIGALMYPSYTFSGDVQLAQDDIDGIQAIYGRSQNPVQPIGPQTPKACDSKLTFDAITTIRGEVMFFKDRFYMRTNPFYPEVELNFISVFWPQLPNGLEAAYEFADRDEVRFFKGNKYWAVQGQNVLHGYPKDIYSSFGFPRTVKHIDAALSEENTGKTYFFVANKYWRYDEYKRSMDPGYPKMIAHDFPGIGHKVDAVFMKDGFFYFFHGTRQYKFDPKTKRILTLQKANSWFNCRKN

Stromelysin-1 = Stromelysin-1 (Homo sapiens, UniProt P08254); assay: Inhibition of recombinant human MMP3 using MOCAc-Lys-Pro-Leu-Gly-Leu-A2pr(Dnp)-[…] as substrate preincubated for 15 mins followed by substrate addition by fluroscence based assay
Chain of Stromelysin-1 (P08254 whole entry): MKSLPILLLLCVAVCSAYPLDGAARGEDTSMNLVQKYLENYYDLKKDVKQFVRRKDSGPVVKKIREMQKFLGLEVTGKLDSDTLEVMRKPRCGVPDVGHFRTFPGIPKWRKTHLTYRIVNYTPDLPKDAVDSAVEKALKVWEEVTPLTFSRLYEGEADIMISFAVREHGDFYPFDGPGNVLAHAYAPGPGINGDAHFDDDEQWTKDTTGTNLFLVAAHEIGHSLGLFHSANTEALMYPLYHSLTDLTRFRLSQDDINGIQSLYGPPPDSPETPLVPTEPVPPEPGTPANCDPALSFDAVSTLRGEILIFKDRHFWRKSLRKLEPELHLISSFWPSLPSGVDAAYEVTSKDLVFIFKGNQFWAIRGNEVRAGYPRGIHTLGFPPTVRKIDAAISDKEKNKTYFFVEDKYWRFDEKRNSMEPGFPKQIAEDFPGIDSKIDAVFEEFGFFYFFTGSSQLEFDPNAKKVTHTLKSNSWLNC

Matrilysin = molecular target: T2, Matrilysin (Homo sapiens, UniProt P09237)
T2 sequence (P09237 whole entry): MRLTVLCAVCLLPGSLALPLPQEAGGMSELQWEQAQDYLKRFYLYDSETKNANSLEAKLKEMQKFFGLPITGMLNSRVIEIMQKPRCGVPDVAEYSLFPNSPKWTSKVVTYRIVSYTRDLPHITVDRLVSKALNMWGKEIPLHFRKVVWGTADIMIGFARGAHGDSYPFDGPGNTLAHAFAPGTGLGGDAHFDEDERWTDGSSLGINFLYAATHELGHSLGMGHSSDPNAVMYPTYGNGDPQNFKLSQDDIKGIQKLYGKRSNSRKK

Neutrophil collagenase = Neutrophil collagenase (Homo sapiens, UniProt P22894)
Chain of Neutrophil collagenase (P22894 whole entry): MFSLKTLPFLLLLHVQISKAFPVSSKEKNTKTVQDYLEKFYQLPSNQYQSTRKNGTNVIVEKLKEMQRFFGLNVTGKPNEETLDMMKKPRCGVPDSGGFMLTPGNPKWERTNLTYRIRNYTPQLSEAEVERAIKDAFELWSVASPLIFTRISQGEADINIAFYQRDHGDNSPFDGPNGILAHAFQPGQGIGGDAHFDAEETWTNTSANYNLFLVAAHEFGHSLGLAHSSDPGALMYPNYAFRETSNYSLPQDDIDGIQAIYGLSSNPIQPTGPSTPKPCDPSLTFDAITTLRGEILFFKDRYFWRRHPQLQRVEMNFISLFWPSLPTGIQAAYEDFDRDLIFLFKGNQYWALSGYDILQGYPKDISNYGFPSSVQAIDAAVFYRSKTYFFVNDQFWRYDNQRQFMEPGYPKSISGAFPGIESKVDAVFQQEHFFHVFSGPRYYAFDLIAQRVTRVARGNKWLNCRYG

[3] = molecular target: Matrix metalloproteinase-9 (Homo sapiens, UniProt P14780)
Chain of Matrix metalloproteinase-9 (P14780 whole entry): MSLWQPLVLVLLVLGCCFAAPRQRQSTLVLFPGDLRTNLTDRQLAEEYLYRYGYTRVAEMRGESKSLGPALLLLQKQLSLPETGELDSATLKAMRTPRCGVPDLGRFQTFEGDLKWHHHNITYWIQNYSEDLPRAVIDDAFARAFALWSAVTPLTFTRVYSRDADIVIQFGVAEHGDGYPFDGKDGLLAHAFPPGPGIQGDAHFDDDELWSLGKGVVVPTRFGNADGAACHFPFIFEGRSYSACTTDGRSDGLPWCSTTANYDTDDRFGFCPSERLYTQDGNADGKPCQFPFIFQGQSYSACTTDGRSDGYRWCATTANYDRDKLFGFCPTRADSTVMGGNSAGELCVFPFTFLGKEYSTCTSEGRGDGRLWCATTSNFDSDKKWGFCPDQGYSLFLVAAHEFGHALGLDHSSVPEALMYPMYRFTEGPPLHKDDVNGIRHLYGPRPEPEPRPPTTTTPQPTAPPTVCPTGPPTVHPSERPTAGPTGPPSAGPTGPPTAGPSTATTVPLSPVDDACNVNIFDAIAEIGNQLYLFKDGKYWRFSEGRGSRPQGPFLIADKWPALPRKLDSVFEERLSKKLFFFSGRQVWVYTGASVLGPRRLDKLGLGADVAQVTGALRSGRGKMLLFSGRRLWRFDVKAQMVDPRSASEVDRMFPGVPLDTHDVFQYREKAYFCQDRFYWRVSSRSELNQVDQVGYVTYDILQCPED

[4] = molecular target: Matrix metalloproteinase-14 (Homo sapiens, UniProt P50281); assay: Inhibition of recombinant human MMP14 using MOCAc-Lys-Pro-Leu-Gly-Leu-A2pr(Dnp)-Ala-Arg-NH2 as substrate preincubated for 15 mins followed by substrate addition by fluroscence based assay
[5] = molecular target: MMP-1/MMP-2 (Homo sapiens) (UniProt P08253+P03956); assay: Selectivity ratio of IC50 for recombinant human MMP1 to IC50 for recombinant human MMP2; type: protein assay
Chain of MMP-1/MMP-2 (Homo sapiens) (P08253 whole entry, looked up, one chain of several): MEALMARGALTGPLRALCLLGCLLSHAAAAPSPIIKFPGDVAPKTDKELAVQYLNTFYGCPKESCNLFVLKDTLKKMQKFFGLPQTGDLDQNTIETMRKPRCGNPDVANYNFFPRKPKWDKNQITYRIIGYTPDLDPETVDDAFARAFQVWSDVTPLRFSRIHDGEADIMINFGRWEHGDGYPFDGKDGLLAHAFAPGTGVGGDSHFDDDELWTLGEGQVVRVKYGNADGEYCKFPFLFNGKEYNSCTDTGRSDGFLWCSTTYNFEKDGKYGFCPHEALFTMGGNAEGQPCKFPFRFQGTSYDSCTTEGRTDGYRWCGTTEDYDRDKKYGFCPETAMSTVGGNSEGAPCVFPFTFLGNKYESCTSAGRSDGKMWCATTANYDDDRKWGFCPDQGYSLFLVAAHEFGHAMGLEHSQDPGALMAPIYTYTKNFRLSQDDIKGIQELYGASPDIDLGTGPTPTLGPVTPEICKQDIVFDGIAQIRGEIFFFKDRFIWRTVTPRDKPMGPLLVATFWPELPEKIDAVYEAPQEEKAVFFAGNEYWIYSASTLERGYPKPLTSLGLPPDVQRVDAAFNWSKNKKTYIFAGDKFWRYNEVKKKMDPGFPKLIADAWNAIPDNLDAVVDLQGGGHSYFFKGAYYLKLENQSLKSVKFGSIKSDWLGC

Homo sapiens [6] = species: Homo sapiens; assay: Selectivity ratio of IC50 for recombinant human MMP3 to IC50 for recombinant human MMP2
Homo sapiens [7] = species: Homo sapiens; assay: Selectivity ratio of IC50 for recombinant human MMP7 to IC50 for recombinant human MMP2
Homo sapiens [8] = species: Homo sapiens; assay: Selectivity ratio of IC50 for recombinant human MMP8 to IC50 for recombinant human MMP2
[9] = molecular target: MMP-2/MMP-9 (Homo sapiens) (UniProt P08253+P14780); assay: Selectivity ratio of IC50 for recombinant human MMP9 to IC50 for recombinant human MMP2; type: protein assay
[10] = molecular target: MMP-2/MMP-14 (Homo sapiens) (UniProt P50281+P08253); assay: Selectivity ratio of IC50 for recombinant human MMP14 to IC50 for recombinant human MMP2; type: protein assay
[11] = Clearance in fasted Sprague-Dawley rat at 0.4 mg/kg, iv by LC-MS/MS analysis; type: ADME, organism-based; settings: in vivo
[12] = Volume of distribution at steady state in fasted Sprague-Dawley rat at 0.4 mg/kg, iv by LC-MS/MS analysis; type: ADME, organism-based; settings: in vivo, read-out: Vdss
[13] = Half life in fasted Sprague-Dawley rat at 0.4 mg/kg, iv by LC-MS/MS analysis; type: ADME, organism-based; settings: in vivo
[14] = molecular target: 72 kDa type IV collagenase (Homo sapiens, UniProt P08253)
Chain of 72 kDa type IV collagenase (P08253 whole entry): as the sequence (P08253 whole entry, looked up, one chain of several) above

Collagenase 3 = Collagenase 3 (Homo sapiens, UniProt P45452)
physchem [15] = settings: buffer, pH 7.4
[16] = Chemical stability of the compound in acetate buffer at pH 4.0 assessed as residual rate incubated for 2 weeks by HPLC analysis; type: physicochemical; settings: read-out: Stability
physchem [17] = settings: phosphate buffer, pH 7.4
physchem [18] = settings: phosphate buffer, pH 9

| SMILES | Ratio IC50 (Homo sapiens [1]) | remaining at 1 h, 1 µM [2] | pIC50 (Interstitial collagenase) | pIC50 (Stromelysin-1) | pIC50 (Matrilysin) | pIC50 (Neutrophil collagenase) | pIC50 [3] | pIC50 [4] | Ratio IC50 [5] | Ratio IC50 (Homo sapiens [6]) | Ratio IC50 (Homo sapiens [7]) | Ratio IC50 (Homo sapiens [8]) | Ratio IC50 [9] | Ratio IC50 [10] | clearance [11] | Vd [12] | half-life [13] | pIC50 [14] | pIC50 (Collagenase 3) | logD (physchem [15]) | other results |
| --- | --- | --- | --- | --- | --- | --- | --- | --- | --- | --- | --- | --- | --- | --- | --- | --- | --- | --- | --- | --- | --- |
| CC[C@H](C)[C@@H](C(=O)N1CCC[C@H]1CC(N)=O)N(C)C(=O)[C@H](CC(C)C)NC(=O)[C@H](C)NC(=O)[C@H](CC(=O)O)NC(=O)[C@H](CC(N)=O)NC(=O)CCCNS(=O)(=O)c1ccc(Oc2ccccc2)cc1 ({Benzenesulfonyl(4-OPh)-GABA}-NDAL[NMeI][β3hP]-NH2) | 85 | 68.4% | < 5.00 | < 5.00 | 5.68 | 6.58 | 6.74 | 7.96 | 182000 | > 182000 | 38100 | 4740 | 3290 | 200 | 74.5 mL/min/kg | 0.882 L/kg | 8 min | 10.26 | 7.68 | 1.53 |  |
| CC(C)C[C@H](NC(=O)[C@H](CCN)NC(=O)[C@H](CC(=O)O)NC(=O)[C@H](CC(N)=O)NC(=O)CCCNS(=O)(=O)c1ccc(Oc2ccccc2)cc1)C(=O)N(C)[C@@H](CCC(=O)O)C(=O)N1CCC[C@H]1CC(N)=O ({Benzenesulfonyl(4-OPh)-GABA}-ND[Dab]L[NMeE][β3hP]-NH2) | 7240 | 91.7% | < 5.00 | < 5.00 | < 5.00 | 5.23 | < 5.00 | 6.28 | > 147000 | > 147000 | > 147000 | 86500 | > 147000 | 7740 | 20.2 mL/min/kg | 0.275 L/kg | 9 min | 10.17 | 6.44 | 1.26 |  |
| CC(C)C[C@H](NC(=O)[C@H](CCN)NC(=O)[C@H](CC(=O)O)NC(=O)[C@H](CC(N)=O)NC(=O)CCCCNC(=O)c1ccc(Oc2ccc(C(N)=O)cc2)cc1)C(=O)N(C)[C@@H](CCC(=O)O)C(=O)N1CCC[C@H]1CC(N)=O ({Benzoyl(4-OPh(4-CONH2))-Ava}-ND[Dab]L[NMeE][β3hP]-NH2) |  | 101% |  |  |  |  |  |  |  |  |  |  |  |  | 12 mL/min/kg | 0.267 L/kg | 16 min | 10.29 | 7.24 |  | remaining at 336 h [16]: 95.8%; remaining at 336 h (physchem [17]): 89.4%; remaining at 336 h (physchem [18]): 78% |
